# Legend:
# [1] = Metabolic stability assay in liver microsomes; format: in vitro ADME, mouse
# [2] = Metabolic stability assay in liver microsomes; format: in vitro ADME, human
smiles,measurement,setting,value
Cc1nnc2n1-c1ccc(Cl)cc1C(c1ccccc1)=NC2 [Alprazolam],MLM t1/2,"[1]; mouse liver microsomes 0.5 mg protein/mL, 2.0 μM compound, 37°C",4.93 h
same,microsomal CLint at 2 μM,"[1]; mouse, liver microsomes",5 µL/min/mg
same,HLM t1/2,"[2]; human liver microsomes 0.5 mg protein/mL, 2.0 μM compound, 37°C",13.9 h
same,microsomal CLint at 2 μM,"[2]; human, liver microsomes",2 µL/min/mg

# — publication PMC11087803 (Proceedings of the National Academy of Sciences of the …, 2024)
